According to a melting point compilation (Tetko et al.; mined from patent text by program, amines drawn as free bases though some values may be those of a salt):

Row | Structure (SMILES) | melting point [°C]
1 | CC(=O)/C=C/c1ncn2c1CN(C)C(=O)c1c(Cl)cccc1-2 | 235 to 237
2 | CCOC(=O)c1c(C)n(-c2ccc(N(CC)CC)cc2)c(C)c(C(=O)OCC)c1=O | 138
3 | O=C(CC1CCCCC1)Nc1c(Cl)ccc2nc(N3CCC(c4noc(=O)[nH]4)CC3)ccc12 | 233 to 235
4 | COc1ncc(Cl)cc1Br | 45 to 47.5
5 | CCOC(=O)c1cc(=O)c2cc(O)c(=O)ccc2[nH]1 | 169 to 172
6 | COc1ccc2c(c1)N(C1CN3CCC1CC3)c1ccccc1S2 (stereo unspecified) | 158
7 | COc1cccc(CCc2c(CCNC(=O)CCCCC(=O)O)ccc(OC)c2OC)c1 | 119 to 121
8 | COC(=O)c1ccc(NC(=O)c2ccccc2-c2ccccc2)c(OC)c1 | 115 to 117
9 | Cc1ccc(C(=O)C2=C(O)C(=O)N(c3ccc(N(C)C)nn3)C2c2ccc(C(C)C)cc2)cc1 (stereo unspecified) | 281
10 | COc1ccc(C(=O)N[C@@H](Cc2ccc(OC(=O)c3ccc(OC)cc3)cc2)C(=O)O)cc1 | 171 to 174
11 | CC(C)NC(=O)N1CCc2cc(S(=O)(=O)n3cc(-c4ccccc4)[nH]c3=O)ccc21 | 214 to 216
12 | CN(Cc1cc(C(F)(F)F)cc(C(F)(F)F)c1)C(=O)c1c(-c2ccc(F)cc2)c2c(c(=O)n1C)CNCC2 | 178 to 180
13 | COc1cc2c(cc1OC)C(C)(CCC(=O)O)OCC2=O (stereo unspecified) | 172 to 173
14 | COc1ccccc1-c1n[nH]c(-c2ccccc2C)n1 | 160 to 161
15 | N#CC=C1CCN(c2ccc(N3C[C@H](CNC(=O)CI)OC3=O)cc2F)CC1 | 178 to 180
16 | CCOc1ccccc1C(=N)N | 78 to 84
17 | O=c1oc(C(F)(F)F)nc2ccc(I)cc12 | 131 to 132
18 | NC(=O)Cc1cc(Oc2ccc3c(ccn3C(=O)Nc3ccc(-c4cccnc4)c(C(F)(F)F)c3)c2)ncn1 | 171 to 172
19 | COc1ccc(NC(=O)c2c(C)nc3ccccc3c2O)cc1 | 222
20 | CN1CC(CNC(=O)C(F)(F)F)c2c[nH]c3cccc(c23)C1=O (stereo unspecified) | 174 to 177
21 | O=C1NC(=O)C(c2c[nH]c3ccccc23)=C1c1ccccc1 | 256
22 | COc1cc(-n2nc(C(=O)N(C)C)c3c4ccc(Cl)cc4n(C)c3c2=O)ccn1 | 237 to 238
23 | Cc1cccc(-n2nc(C)c3c(=O)c4ccccc4[nH]c32)n1 | 252
24 | NC(=O)c1ccc(-c2ccc3nnn(Cc4ccc5ncsc5c4)c3n2)cc1Cl | 238 to 240
25 | Cc1cccc(NC(=O)NC2CN(C(=O)C(C)(C)C)c3ccccc3N(CC(=O)N(C)C)C2=O)c1 (stereo unspecified) | 252 to 254
26 | CCCCOC(=O)c1ccc(OC(=O)c2ccc(C(=O)Oc3ccc(C(=O)OCCCC)cc3)cc2)cc1 | 128 to 131
27 | COc1ccc(C(=O)Nc2ccc3ccc(Cl)nc3n2)cc1 | 208
28 | CC(C)(C)c1cc(CO)c(O)c(CO)c1 | 68 to 73

Row | Structure (SMILES) | melting point [°C]
29 | CC1=Nc2ccc(CO)cc2C(=O)C1 | 249 to 252
30 | O=c1c2cc(F)c(N3CCCC3)cc2n(Cc2ccccc2)c(=O)n1O | 234 to 236
31 | C#Cc1c[nH]c2ncnc(N3CCCCC3)c12 | 179 to 181
32 | CCOC(=O)C=C1CCC(n2nc(-c3c(-c4ccccc4)nn4ccccc34)ccc2=O)CC1 (stereo unspecified) | 166 to 168
33 | NC(N)=Nc1nc(-c2cccc(N)n2)cs1 | 242
34 | Cc1ncnn1-c1ccc(C#N)c(F)c1 | 89 to 90
35 | COc1ccc(SCCNC(=O)c2ccc(OCC=C(C)CCC=C(C)C)cc2)nc1 | 82.6 to 83.4
36 | O=C1NC(=O)c2c1c(-c1ccccc1Cl)cc1c2c(Br)cn1CCCN1CCOCC1 | 117 to 120
37 | O=C1c2ccccc2COc2ccc(O)cc21 | 165 to 166
38 | CCCCOC(=O)C(C)(NC(=O)c1cc([N+](=O)[O-])cc([N+](=O)[O-])c1)C(C)C (stereo unspecified) | 110 to 113
39 | CCOc1ccc(C(=O)CCC(=O)OC)cc1OCC | 84 to 85
40 | O=C1c2ccccc2C(=O)N1CCCCc1ccco1 | 61 to 63
41 | C1=CC(n2nc(-c3cccc4ccccc34)cc2-c2ccccc2)(n2nc(-c3cccc4ccccc34)cc2-c2ccccc2)CC=C1c1ccccc1 | 264
42 | Cc1c(C(=O)C(N)=O)c2c(OCC(=O)O)cc3c(c2n1Cc1ccccc1)CCC3 | 255 to 257
43 | CCCCCCCCCCCCCCCCCNC(=O)OC[C@@H]1CO[C@@H](COC(=O)NCc2ccccn2)C1 (relative stereo) | 52.7 to 54.8
44 | CCCNC(=C1Sc2ccccc2C1=O)c1ccccc1 | 124 to 125
45 | Nc1cc2c(Nc3ccc4c(cnn4Cc4cccc(F)c4)c3)ncnc2cn1 | 241 to 244
46 | c1ccc2nc(N3CCN(Cc4n[nH]c5ccccc45)CC3)ccc2c1 | 187 to 188
47 | O=C(O)CCc1cn(Cc2ccc(OCc3ccccc3)cc2)cc1-c1ccccc1 | 130 to 131
48 | CC(O)c1ccc2cc(OCc3ccccc3)ccc2c1 (stereo unspecified) | 97 to 98
49 | CCC(=O)OCOC(=O)c1cc(S(N)(=O)=O)c(Cl)cc1NCc1ccco1 | 141 to 142
50 | c1cc2c(cn1)OCCN2 | 167 to 169
51 | CCCNC(=O)N1N=C(c2ccc([N+](=O)[O-])cc2)c2cc(Cl)ccc2CC1C (stereo unspecified) | 186 to 187
52 | CC(C(N)=O)c1ccc(-c2ccc(F)cc2F)c(O)c1 (stereo unspecified) | 222 to 224
53 | O=C(O)c1cccc2c1sc1ccccc12 | 253 to 255
54 | CCOC(=O)C(NC(=O)NN1CC(=O)NC1=O)c1ccccc1 (stereo unspecified) | 148 to 151
55 | O=C(CC(=O)C1CC1)c1cccnn1 | 85 to 87

Second part, the compound after the results:

Row | melting point [°C] | Structure (SMILES)
56 | 67.5 to 68.5 | Cc1ccc2c(Br)c(Br)sc2c1
57 | 65 to 67 | COc1ccc(C2(C)C=C(Cl)N=CN2)cc1 (stereo unspecified)
58 | 232 to 235 | CC1(C)N(Cc2ccc(C(=O)Cl)cc2)C(=O)C(=O)N1Cc1ccc(C(=O)Cl)cc1
59 | 111 to 112 | I/C(=C/C=C(/I)SCc1ccccc1)SCc1ccccc1
60 | 126 to 128 | O=[N+]([O-])c1ccc(C=Cc2ccc(N(CCCCCCO)CCCCCCO)cc2)cc1
61 | 53 to 54 | CCCCCCCCCCC[C@H](CC(=O)N[C@@H](CO)C(=O)OCc1ccccc1)OC(=O)CCCCCCCCCC
62 | 142 to 143 | CCOC(=O)c1c(C)cc(OC)cc1C(=O)O
63 | 241 to 245 | COc1ccc(C(=O)Nc2ccncc2)c2c3cc(Cl)ccc3n(Cc3ccc(F)cc3)c12
64 | 153 to 155 | COc1ccc(-c2nc3cccnc3n2CC(=O)N2CCCCC2)cc1
65 | 179 to 181 | Cc1cc2nc(S(=O)Cc3ccccc3N)[nH]c2cc1C (stereo unspecified)
66 | 217 to 219 | COc1ccccc1-c1cc(S(=O)(=O)c2ccc(N)cc2)cc(N2CCCC2)n1
67 | 118 to 120 | COC(=O)[C@H](Cc1ccc(I)cc1)NC(C)=O
68 | 190 | CC(C)(C)OC(=O)[C@H]1CC[C@@H](c2ccccc2)N1C(=O)CNC(=O)Nc1ccc(O)c(C(=O)O)c1 (racemic)
69 | 72 to 73 | CC1(C(=O)NCc2cccs2)CCCCC1
70 | 155 to 156 | CCCC(CCC)(CC(=O)Nc1cccc(OCc2ccc3ccc(F)cc3n2)c1)C(=O)O
71 | 156 to 157 | C[C@@H](N)[C@](O)(Cn1cncn1)c1ccc(F)cc1F
72 | 130 | C=CCCCn1nnc(-c2ccc3[nH]c(CCCC)nc(=O)c3c2)n1
73 | 141 to 142 | CCNC(=NS(=O)(=O)c1ccc(N)cc1)N1CC2(C=N1)CCCC2
74 | 68 to 69 | CC(=O)OCC(ON1C(C)(C)CC(O)CC1(C)C)c1ccccc1 (stereo unspecified)
75 | 128 to 130 | COc1cc(NC(=O)N2CCOCN2)c(Cl)cc1Cl
76 | 156 to 158 | CN(C)C(=S)N(C)Cc1ccc(CCn2cnc3cc(-c4ccc(Cl)cc4)sc3c2=O)cc1
77 | 207 to 211 | CS(=O)(=O)c1ccc(COc2cc(C=C3SC(=S)N(CC(=O)O)C3=O)ccc2OCc2ccccc2)cc1
78 | 192 to 195 | CC(=O)SCCC1NSc2cc(S(N)(=O)=O)c(Cl)cc2N1 (stereo unspecified)

Row | melting point [°C] | Structure (SMILES)
79 | 108 to 110 | CC(C)NCC1(O)COc2ccc(O)cc2OC1 (stereo unspecified)
80 | 239 to 244 | O=C(O)c1cn(-c2csnn2)c2cc(F)c(F)cc2c1=O
81 | 124 to 127 | S=C(NCc1ccc(Cl)cc1Cl)N1CCc2c([nH]c3ccccc23)C1c1ccc2c(c1)OCO2 (stereo unspecified)
82 | 173 | COC(=O)C1CCC(C(=O)Nc2sc3c(c2C(=O)NCc2ccc4c(c2)OCO4)CCCC3)CC1 (stereo unspecified)
83 | 98 to 101 | NS(=O)(=S)CCCc1ccccc1 (stereo unspecified)
84 | 49 to 51 | CCOC(=O)NC1=C(C(=O)OCC)CCC1
85 | 158 to 159 | Cc1cc(Cn2nc(C(F)(F)F)cc2C(F)(F)F)ccc1N1C(=O)c2cccc(F)c2C1=O
86 | 221 to 222 | CON(C)C(=O)Nc1c(C(=O)c2occc2CO)[nH]c2cc(Cl)ccc12
87 | 73 to 75 | COc1cc(Br)ccc1OC(=O)c1ccccc1
88 | 186 | Cc1ccc(Cn2c(NC3CCNCC3)nc3cnccc32)o1
89 | 195 to 196 | COc1cc(/C=C(\C)C(=O)O)c2cccc(C(C)C)c2c1O
90 | 68.5 to 69.5 | CCOC(=O)CCSc1nnsc1-c1ccc(C)cc1
91 | 108 | Cc1ccc(O)c(-c2cc3ccccn3n2)c1
92 | 143 to 144 | COc1ccc2c(c1)N(c1cccc(Cl)c1)C(=O)C2(C)NC(=O)OCc1ccccc1 (stereo unspecified)
93 | 158 to 164 | COc1ccc(N2CCN(c3ccc(F)cc3)C(=O)C2)c(-c2ccc(N(C)C)cc2)n1
94 | 72 to 73 | O=C(O)C(=O)c1ccc(OCCSc2ccccc2)cc1
95 | 95 to 96 | O=CCN1CCc2ccc(Br)cc2C1=O
96 | 94 to 95 | CC(=O)c1ccc(S(=O)(=O)C[N+](=O)[O-])cc1
97 | 181 to 183 | Nn1cnc2c(Br)csc2c1=O
98 | 101 to 104 | CCOC(=O)C(CCCN(C)CCc1ccc(OC)c(OC)c1)(C(=O)OCC)c1ccc(OC)c(OC)c1
99 | 99 | Cc1cc(O)c(CC(=O)OCCC(C)C)cc1O
100 | 94 to 96 | CCCCCCNC(=O)OCCCCCCNC(=O)OC1CCN(C(=O)Oc2ccc(C3CCCCC3)cc2)CC1
101 | 176 to 178 | COC(=O)C1=Cc2cc(O)ccc2S(=O)(=O)CC1
